The values that follow come from US5326883A, “Oxime ether derivatives having lipoxygenase inhibitory activity” (Abbott Laboratories, priority 1992, dated 1994).

The subject of the first assay is biosynthesis of leukotrienes. Kind of assay: Inhibition of leukotriene biosynthesis in vivo, rat peritoneal anaphylaxis model, oral. The note with it: Oral Dose at 30 μmol/kg, gavage one hour prior to antigen challenge; rat peritoneal fluid 15 min after challenge. How it is done: Inhibition of the biosynthesis of leuktrienes in vivo after oral administration of compound was determined using a rat peritoneal anaphylaxis model in a similar manner as that described by Young and coworkers (Young, P. R.; Dyer, R. D.; Carter, G. W. Fed. Proc., Fed. Am. Soc. Exp. Biol. 1985, 44, 1185). In this model rats were injected intraperitoneally (ip) with rabbit antibody to bovine serum albumin (BSA) and three hours later injected ip with BSA to induce an antgen-antibody response. Rats were sacrificed 15 minutes after this challenge and the peritoneal fluids were collected and analyzed for leukotriene levels. Test compounds were administered by gavage one hour prior to the antigen challenge. Percent inhibition values were determined by comparing the treatment group to the mean of the control group.
Take `CC(CO/N=C\c1ccc(Oc2ccc(F)cc2)o1)N(O)C(N)=O` (stereo not shown) [Example 6, 5-(4-fluorophenoxy)fur-2-ylmethyl-Z-oximyl-O-2-(1-methyl)ethyl-N-hydroxyurea]: the “% Inhibition of Leukotrienes” value is recorded as 70%.
For the molecule `CC(CO/N=C/c1ccc(Oc2ccc(F)cc2)o1)N(O)C(N)=O` (stereo not shown) [Example 7, 5-(4-fluorophenoxy)fur-2-ylmethyl-E-oximyl-O-2-(1-methyl)ethyl-N-hydroxyurea], the “% Inhibition of Leukotrienes” value turned out to be 56%.
In the case of `CC(CN(O)C(N)=O)O/N=C\c1ccc(Oc2ccc(F)cc2)o1` (stereo not shown) [Example 9, 5-(4-fluorophenoxy)fur-2-ylmethyl-Z-oximyl-O-2-(2-methyl)ethyl-N-hydroxyurea], the “% Inhibition of Leukotrienes” value is 64%.

A further assay addresses T1, 5-Lipoxygenase (Homo sapiens, UniProt P09917).
T1 construct: Human heparinized whole blood was preincubated with test compounds or vehicle for 15 min; endogenous in cells; host or cells: human heparinized whole blood (blood leukocytes)
T1 sequence (P09917 1-674): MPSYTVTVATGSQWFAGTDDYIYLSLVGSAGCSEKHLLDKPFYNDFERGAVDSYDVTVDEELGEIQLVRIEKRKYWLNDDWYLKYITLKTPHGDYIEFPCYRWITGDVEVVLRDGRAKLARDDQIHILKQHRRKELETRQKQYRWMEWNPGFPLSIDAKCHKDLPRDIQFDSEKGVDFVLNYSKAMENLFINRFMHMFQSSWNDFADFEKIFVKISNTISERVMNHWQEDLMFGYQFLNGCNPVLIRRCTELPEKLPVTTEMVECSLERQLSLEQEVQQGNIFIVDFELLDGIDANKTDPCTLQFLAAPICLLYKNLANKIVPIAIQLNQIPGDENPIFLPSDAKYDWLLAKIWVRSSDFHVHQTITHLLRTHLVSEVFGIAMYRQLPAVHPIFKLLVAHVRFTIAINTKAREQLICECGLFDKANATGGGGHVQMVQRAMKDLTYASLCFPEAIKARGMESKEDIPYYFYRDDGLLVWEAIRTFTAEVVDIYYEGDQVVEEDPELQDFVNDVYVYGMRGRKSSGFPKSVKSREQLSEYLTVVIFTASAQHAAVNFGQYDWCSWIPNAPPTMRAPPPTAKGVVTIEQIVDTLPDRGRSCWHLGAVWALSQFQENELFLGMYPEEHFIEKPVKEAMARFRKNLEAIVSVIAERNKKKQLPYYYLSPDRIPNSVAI
Kind of assay: Calcium ionophore-induced LTB4 biosynthesis in human whole blood (5-lipoxygenase inhibition). It is filed as cell-based. Particulars: human heparinized whole blood; 15 min preincubation at 37° C; A23187 8.3 μM, 30 min; LTB4 by radioimmunoassay. The procedure: Inhibition of leukotriene biosynthesis was evaluated in an assay, involving calcium ionophore-induced LTB4 biosynthesis expressed human whole blood. […] The methanol extract was analyzed for LTB4 using a commercially available radioimmunoassay. |In Vitro Inhibitory Potencies of Compounds of this Invention […] |in Human Whole Blood
Broadly, the IC50 is the concentration that inhibits the measured activity by half. For `NC(=O)N(O)CCON=Cc1cccc(Oc2ccc(F)cc2)c1` [Example 4, 3-(4-fluorophenoxy)phenylmethyloximyl-O-2-ethyl-N-hydroxyurea], the IC50 worked out at 100 nM.
Still for that read-out and setting: next, `CC(=NOCCN(O)C(N)=O)c1cc2ccccc2s1` [Example 1, 1-(benzo[b]thien-2-yl)ethyloximyl-O-2-ethyl-N-hydroxyurea]: 100 nM.
On the same count and under the same terms, next, `CCCCCC=NOCCN(O)C(N)=O` [Example 2, hexyloximyl-O-2-ethyl-N-hydroxyurea]: 100 nM; `NC(=O)N(O)CCON=Cc1ccc(Sc2ccccc2)o1` [Example 10, 5-(phenylthio)fur-2-ylmethyloximyl-O-2-ethyl-N-hydroxyurea]: 100 nM; `CC(CN(O)C(N)=O)O/N=C/c1ccc(Oc2ccc(F)cc2)o1` (stereo not shown) [Example 8, 5-(4-fluorophenoxy)fur-2-ylmethyl-E-oximyl-O-2-(2-methyl)ethyl-N-hydroxyurea]: 140 nM.
Same read-out and setting: next, `NC(=O)N(O)CCON=Cc1cccn1Cc1ccc(Cl)cc1` [Example 3, 1-(4-chlorobenzyl)-pyrro-2-ylmethyloximyl-O-2-ethyl-N-hydroxyurea]: 160 nM; `CC(CN(O)C(N)=O)O/N=C\c1ccc(Oc2ccc(F)cc2)o1` (stereo not shown) [Example 9, 5-(4-fluorophenoxy)fur-2-ylmethyl-Z-oximyl-O-2-(2-methyl)ethyl-N-hydroxyurea]: 100 nM.
